The star is where a group is joined. Stearoyl = CCCCCCCCCCCCCCCCCC(=O)*
Tests used:
[1] = test system: Human Fetal lung fibroblasts (HFL-1); assay: HFL-1 fibroblast cell proliferation (methylene blue staining); format: cell-based; conditions: peptide 0-10 μM, 48 hours, vs control without peptide; FIG. 4
Protocol: Human Fetal lung fibroblasts (HFL-1) were obtained from the American Type Culture Collection (Manassas, Va.).
Culture medium was prepared from F-12K (Gibco), penicillin/streptomycin/glutamine (penicillin—100U/ml; streptomycin—100U/ml; glutamine—2 mM), 0.5% fetal calf serum and […] ascorbic acid. A suspension of HFL-1 cells at 2.22×10^5 cell/ml was prepared in the above described culture medium.
A series of B4-5 peptide stock solution was prepared by diluting a […] solution of the B4-5 peptide in 100% DMSO, with phosphate buffered saline (PBS) containing 0.1% BSA. The concentration of B4-5 peptide in each stock solution was adjusted to […] the desired concentration of the B4-5 peptide in the assay mixture. Twenty μl of peptide stock solution were placed at the bottom of each well in a 96-well flat bottom tissue culture plate, six replications for each concentration. BSA solution containing 1% DMSO with no added peptide served as a control. 180 μl of the HFL-1 cell suspension were added to each well (40,000 cells per well). The cells were incubated with the peptide (final concentrations of 0-10μM), for 48 hours at 37° C. in a 5% CO2 humidified incubator. At the end of the incubation the cells were fixed with buffered formaline (200 μl/well) for 1 h at room temperature. […] The O.D. was read at 595 nm to determine the number of cells per well. […]

[2] = test system: fracture site on a rabbit ulna; assay: Rabbit ulnar osteotomy model of bone remodeling (histology); format: in vivo, New Zealand White rabbits; conditions: peptide mixture 0.3 cm^3 applied locally to fractured area, 4 weeks, vs untreated osteotomy; FIG. 6
Protocol: The rabbit ulnar osteotomy models described by Bouxsein et al., at the 45th Annual Meeting, Orthopedic Research Society, Anaheim, Calif. (1999), were employed to assess the ability of the B4-5 peptide K099B901 (ALK4-derived peptide) to accelerate bone remodeling.
Bilateral mid-ulnar osteotomies were made in the front limbs of male New Zealand White rabbits using an oscillating saw. The preparation of the peptide was as follows: 40 mg of peptide were dissolved in 200 μl of DMSO (Sigma) and 800 μl of double distilled water. The solution was mixed with 100 mg of methyl cellulose (Sigma) and 100 mg of carboxymethyl cellulose (Serva).
The K099B901 peptide mixture (0.3 cm^3) was locally applied to the fractured area. An untreated osteotomy served as a control. Radiographs of the ulna were taking weekly for 4 weeks. The rabbits were then sacrificed and the fractured areas were taken for bone histology. The bone tissue was fixated in 4% formaldehide and then soaked in 10% formic acid for decalcification. The decalcified tissue was imbedded in paraffin wax, serially sectioned at 5μ and stained with indigo-carmine.

[3] = test system: HNK-1-positive neural crest cells from neural primordia explants; assay: Emigration of neural crest cells from neural primordia explants (HNK-1 immunostaining); format: cell-based, quail; conditions: 5 μM peptide, 24 hours, serum-free medium, compared to control; FIG. 5
Excerpt: The procedure for explants of neural primordia is described in greater detail in Sela-Donenfeld and Kalcheim (Development, 1999, in press), the teaching of which are incorporated herein by reference.
The trunk region of 16 somite-old quail embryos was separately sectioned at the level of the segmental plate plus the last 2 epithelial somite pairs. Neural primordia consisting of the neural tube and premigratory neural crest cells were isolated from adjacent tissues with 25% pancreatin in PBS, transferred to PBS supplemented with 5% newborn calf serum to stop enzymatic activity and washed in serum-free culture medium prior to explantation. The neural primordia were then explanted onto multi-well chamber slides that were pre-coated with fibronectin (50 μg/ml) for 1 hour. The neural primordia were cultured in 50 μl serum-free SFRI medium (Berganton, France) in the absence or presence of B4-5 peptide—K099B901, in a final concentration of 5 μM and incubated in a humid chamber for 24 hours. At the end of the incubation, the primordia were gently washed with PBS and fixed with Bouin's fluid, washed 3 times with PBS and immunostained with 50 μl of monoclonal antibodies against HNK-1 for 1 h at room temperature. Excess HNK-1 antibodies were washed 3 times with PBS. The samples were further incubated with 50 μl of a secondary fluorescent antibody, GAM-FITC for 1 h at room temperature. […]

For “K099B901: B4-5 peptide K099B901 (ALK4-derived peptide), SEQ ID NO. 30, FIG. 3 (Stearoyl-GDNKDNGTWT-NH2; SMILES CCCCCCCCCCCCCCCCCC(=O)NCC(=O)N[C@@H](CC(=O)O)C(=O)N[C@@H](CC(N)=O)C(=O)N[C@@H](CCCCN)C(=O)N[C@@H](CC(=O)O)C(=O)N[C@@H](CC(N)=O)C(=O)NCC(=O)N[C@H](C(=O)N[C@@H](Cc1c[nH]c2ccccc12)C(=O)N[C@H](C(N)=O)[C@@H](C)O)[C@@H](C)O)”, the “stimulation of cell proliferation of the HFL-1 cells” value [1] was “exceeding 2 ×”, the “tissue formed at the fracture site (bone histology)” value [2] was “a bone like bone-tissue was formed leading to a genuine regeneration” and the “outgrowth of HNK-1-positive neural crest cells from the explant” value [3] was “remarkable outgrowth of HNK-1—positive neural crest cells from the explant”.

Reference: patent publication US20030211589A1, “Short peptides from the b4 and b5 regions kinases which selectively modulate protein activity” (priority 2002, published 2003)
